This note sets out measurements from ChEMBL document CHEMBL1158928, “Antitumor agents, 118. The isolation and characterization of bruceanic acid A, its methyl ester, and the new bruceanic acids B, C, and D, from Brucea antidysenterica” (1990).

≈ marks a conversion by molar mass, not a printed value. Calls of active or inactive are those of the source. The calls are words filed in the database; no cut-off is given here.

Test [1] deals with A549. Put plainly: Cytotoxicity against human A549 cells at 10 ug/ml. It is filed as functional, cell-based.
Test [2] has as its system HCT-8. Put plainly: Cytotoxicity against human HCT8 cells at 10 ug/ml. It is filed as functional, cell-based.
Test [3] relates to KB. Put plainly: Cytotoxicity against human KB cells at 10 ug/ml. It is filed as functional, cell-based.
The subject of test [4] is TE-671. Put plainly: Cytotoxicity against human TE671 cells at 10 ug/ml. It counts as functional, cell-based.
For test [5], the system named is P388. Put plainly: Cytotoxicity against mouse P388 cells at 10 ug/ml. It counts as functional, cell-based.
The test system of test [6] is KB. Put plainly: Cytotoxicity against human KB cells. It counts as functional. Particulars: read-out: ED50 (the source's name).
Test [7] has as its system TE-671. Put plainly: Cytotoxicity against human TE671 cells. It is filed as functional. The following applies: read-out: ED50 (the source's name).
Test [8] relates to A549. Put plainly: Cytotoxicity against human A549 cells. It is filed as functional. The following applies: read-out: ED50 (the source's name).
Test [9] deals with HCT-8. Put plainly: Cytotoxicity against human HCT8 cells. It counts as functional. Particulars: read-out: ED50 (the source's name).
Test [10] concerns P388. Put plainly: Cytotoxicity against mouse P388 cells. It is filed as functional. The following applies: read-out: ED50 (the source's name).

Consider `COC(=O)[C@@]12OC[C@]34[C@H](CC(=O)[C@H](OC(=O)/C=C(\C)C(C)(C)OC(C)=O)[C@@H]13)C[C@@H](C(C)=O)[C@](C)(CC(=O)O)[C@H]4[C@@H](O)[C@@H]2O`, for which the outcome in the test on A549 [1], with HCT-8 [2], in the test with KB [3], with TE-671 [4] and with P388 [5] was inactive.

Turning to `COC(=O)C[C@]1(C)[C@H]2[C@@H](O)[C@H](O)[C@]3(C(=O)OC)OC[C@@]24[C@H](CC(=O)[C@H](OC(=O)/C=C(\C)C(C)C)[C@@H]34)C[C@H]1C(C)=O`, the result in the test on A549 [1], with HCT-8 [2], in the test with KB [3], in the test on TE-671 [4] and in the test on P388 [5] was inactive.

Turning to `COC(=O)[C@@]12OC[C@]34[C@H](CC(=O)[C@H](OC(=O)c5ccccc5)[C@@H]13)C[C@@H](C(C)=O)[C@](C)(CC(=O)O)[C@H]4[C@@H](O)[C@@H]2O`, the outcome in the test with A549 [1], in the test on HCT-8 [2], with KB [3], with TE-671 [4] and in the test on P388 [5] was inactive.

With `COC(=O)[C@@]12OC[C@]34[C@H](CC(=O)[C@H](OC(=O)/C=C(\C)C(C)C)[C@@H]13)C[C@@H](C(C)=O)[C@](C)(CC(=O)O)[C@H]4[C@@H](O)[C@@H]2O` [BRUCEANIC ACID A], the EC50 was 4.16 mg/L (≈ 7.56 µM) with KB [6], 5.5 mg/L (≈ 9.99 µM) in the test on TE-671 [7], 10 mg/L (≈ 18.2 µM) with A549 [8] and 10 mg/L (≈ 18.2 µM) with HCT-8 [9].

Regarding `COC(=O)[C@@]12OC[C@]34[C@H](CC(=O)[C@H](OC(=O)/C=C(\C)C(C)(C)O)[C@@H]13)C[C@@H](C(C)=O)[C@](C)(CC(=O)O)[C@H]4[C@@H](O)[C@@H]2O` [BRUCEANIC ACID D], the values for the EC50 in the test on P388 [10], in the test with A549 [8] and in the test with HCT-8 [9] were 0.77 mg/L (≈ 1.36 µM), 10 mg/L (≈ 17.6 µM) and 10 mg/L (≈ 17.6 µM), respectively.
